Target: ATP synthase c-subunit (c9 rotor ring) (Mycolicibacterium phlei, UniProt A0A5N5V239)
Test: X-ray cocrystal structure
Format: binding

Compound: COc1nc2ccc(Br)cc2cc1[C@@H](c1ccccc1)[C@@](O)(CCN(C)C)c1cccc2ccccc12 [BDQ, Bedaquiline]
- IC50: 20 to 25 nM

From paper PMC4640650 (Science Advances, 2015)
